This passage reports TGI results from PubChem BioAssay (NCI).

Some test systems named below: IGROV1 ovarian; SF-539 CNS; DU-145 prostate; U251 CNS; RXF 393 renal; M14 melanoma; BT-549 breast.
Common to all, as to assay: NCI tumour cell line growth inhibition, 48 h

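Grown in 96-well plates, cells were treated for 48 hours with each compound at five concentrations. Insufficient inhibition: endpoint recorded as highest concentration tested. TGI: total growth inhibition.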

As to `COC(=O)/C=C(\CC(=O)OC)n1nnnc1[C@@H]1C[C@H](COC(c2ccccc2)(c2ccccc2)c2ccccc2)[C@H]2OC(C)(C)O[C@H]21`, the TGI in the test on IGROV1 ovarian, in the test with SF-539 CNS, with DU-145 prostate, with U251 CNS, in the test with RXF 393 renal and in the test on M14 melanoma was over 100 µM in each case.
In the case of `COc1ccc(OC)c(CNc2ccc(C(=O)O)cc2)c1`, the TGI in the test with IGROV1 ovarian, in the test on BT-549 breast, with SF-539 CNS, in the test with DU-145 prostate, in the test with U251 CNS and in the test on M14 melanoma was over 100 µM throughout.
For `COc1ccc(N2C(=O)/C(=C\c3cc(OC)c(OC)c(OC)c3)SC2c2ccccc2)cc1` (centres undefined), the TGI in the test on BT-549 breast, in the test on SF-539 CNS, in the test with DU-145 prostate, in the test with U251 CNS, with RXF 393 renal and in the test with M14 melanoma was over 100 µM each time.
Take `NC(=O)C(=CNC(=S)Nc1ccccc1)C(N)=O`: the TGI in the test on IGROV1 ovarian, in the test with SF-539 CNS, with DU-145 prostate, in the test with U251 CNS, in the test with RXF 393 renal and in the test with M14 melanoma was over 100 µM in each case.
For `COc1c(=O)cc2cc[nH]c3ccn(C)c1c23`, the TGI with IGROV1 ovarian, in the test on BT-549 breast, with DU-145 prostate, with U251 CNS, with RXF 393 renal and in the test on M14 melanoma was over 100 µM throughout.
Consider `CCc1c(C)c(C#N)c(=S)n(C2OC(COC(C)=O)C(OC(C)=O)C(OC(C)=O)C2OC(C)=O)c1-c1ccccc1` (centres undefined), for which the TGI in the test on IGROV1 ovarian is over 31.6 µM; in the test with BT-549 breast, over 100 µM; with SF-539 CNS it was over 31.6 µM; with DU-145 prostate, over 31.6 µM; in the test with U251 CNS, 31 µM; in the test on M14 melanoma, over 31.6 µM.
Take `CCC1OC2C(CC=C(C)C)=C3OC(C)(O)C(C)(CC)C(OC(C)=O)C3=C3OC(=O)C=C1C32` (centres undefined): the TGI was 69.6 µM with IGROV1 ovarian; 42.9 µM in the test with BT-549 breast; 40.9 µM in the test with SF-539 CNS; over 100 µM with DU-145 prostate; over 100 µM with U251 CNS; over 100 µM in the test with M14 melanoma.
As to `CC1=NN(c2nc(N)nc(/C(C#N)=C\c3csc([N+](=O)[O-])c3)n2)C(C)(C)C1`, the TGI was over 100 µM in the test on IGROV1 ovarian; over 100 µM in the test on SF-539 CNS; over 100 µM in the test on DU-145 prostate; 39.4 µM in the test on U251 CNS; 44.7 µM in the test on RXF 393 renal; over 100 µM in the test with M14 melanoma.
For the compound `COC(=O)c1cc2c(c3c1CC(Cc1ccccc1)C3=O)CCC2` (centres undefined), the TGI in the test on IGROV1 ovarian, in the test with SF-539 CNS, with DU-145 prostate, in the test with U251 CNS, in the test on RXF 393 renal and in the test on M14 melanoma was over 100 µM each time.
`COc1cc2c(c(O)c1OC)C(=O)[C@@H]1CCC(=O)N1C2`: the TGI in the test with IGROV1 ovarian, with BT-549 breast, in the test with SF-539 CNS, with DU-145 prostate, in the test with U251 CNS and in the test with M14 melanoma was over 100 µM throughout.
With `CCOC(=O)NNC(=O)NCc1cccc(CNC(=O)NNC(=O)OCC)c1`, the TGI in the test on BT-549 breast, in the test with SF-539 CNS, in the test with DU-145 prostate, in the test with U251 CNS, with RXF 393 renal and with M14 melanoma was over 100 µM each time.
On to `C=C1CC(c2ccc(OCCCN3C(=O)c4ccccc4C3=O)cc2)OC1=O` (centres undefined), for which the TGI came to 4.57 µM in the test on IGROV1 ovarian; 0.827 µM in the test with SF-539 CNS; 16.3 µM with DU-145 prostate; 10.7 µM in the test with U251 CNS; 3.65 µM in the test with RXF 393 renal; 9.09 µM in the test on M14 melanoma.
Turning to `O=[N+]([O-])/C(C(Cl)=C(Cl)Cl)=C(/Cl)SCc1ccccc1`, the TGI was 35.7 µM in the test on IGROV1 ovarian; 32.3 µM in the test on SF-539 CNS; 32.5 µM in the test on DU-145 prostate; 25.1 µM in the test with U251 CNS; 9.35 µM in the test on RXF 393 renal; 3.58 µM in the test with M14 melanoma.
Consider `COC(=O)c1ccc(S)c(S(=O)(=O)Nc2n[nH]c(N)n2)c1`, for which the TGI in the test with IGROV1 ovarian, in the test on BT-549 breast, in the test on SF-539 CNS, in the test with DU-145 prostate, in the test on U251 CNS and with M14 melanoma was over 100 µM throughout.
Consider `C[C@]12C[C@@H](OC(=O)[C@]1(C)O)[C@@H]([C@]1(O)CC[C@H]3[C@@H]4C[C@H]5O[C@]56C[C@H]5O[C@H]5C(=O)[C@]6(C)[C@H]4CC[C@@]31C)C2`, for which the TGI with IGROV1 ovarian, in the test with SF-539 CNS, with DU-145 prostate, in the test on U251 CNS, with RXF 393 renal and in the test with M14 melanoma was over 50 µM in each case.
`CC1CN=C(N(Cc2ccccc2)C(=O)Nc2ccc(Cl)c(Cl)c2)S1` (centres undefined): the TGI with IGROV1 ovarian was over 100 µM; in the test with SF-539 CNS it was over 100 µM; in the test on DU-145 prostate, over 100 µM; in the test with U251 CNS it was over 100 µM; in the test on M14 melanoma it was 48.8 µM.
Consider `CC1(C)OC(=S)N(c2ccccc2)C12C=Cc1ccccc1O2` (centres undefined), for which the TGI in the test on IGROV1 ovarian, in the test on BT-549 breast, in the test with DU-145 prostate, in the test with U251 CNS, in the test with RXF 393 renal and in the test with M14 melanoma was over 100 µM throughout.
Take `Cc1ccc2nc(N/N=C/c3sccc3C)cc(C)c2c1`: the TGI with IGROV1 ovarian, in the test with BT-549 breast, in the test with DU-145 prostate, in the test with U251 CNS, with RXF 393 renal and in the test with M14 melanoma was over 100 µM throughout.
As for `Oc1ccc2cc(Br)ccc2c1-c1c(O)ccc2ccc(Br)cc12`, the TGI in the test with IGROV1 ovarian was found to be 20.7 µM; in the test with BT-549 breast, 27.9 µM; in the test with SF-539 CNS it was 34.8 µM; in the test with DU-145 prostate it was 29.2 µM; in the test on U251 CNS, 28 µM; with M14 melanoma it was 33.1 µM.
`O=C1C(Cl)C2(CC(/C=C/c3ccccc3)=NN2c2cccc(S(=O)(=O)O)c2)N1c1nc2ccccc2s1` (centres undefined): the TGI in the test on IGROV1 ovarian worked out at 21.1 µM; in the test with BT-549 breast, 28.5 µM; in the test with SF-539 CNS, 35.3 µM; in the test on U251 CNS, 32.1 µM; in the test with RXF 393 renal, 42.3 µM; with M14 melanoma, 36 µM.
